Test results reported in patent US10350255B2, “Polygonum cuspidatum extracts” (priority 2015, dated 2019).
Read-outs that look alike come from different tables or passages of the source.

What was measured:
[1] = tested on: microorganisms; experiment: Photodynamic inactivation by isolated fractions and commercial anthraquinones; format: cell-based; conditions: for Photodynamic effect of components isolated by fractionation: isolated by fractionation of the extract; for Order of photodynamic inactivation of microorganisms: commercial samples of anthraquinones
Source text: The anthraquinones, or their glycosylated derivatives, could be responsible for the photosensitizing effect of the extract. […] Commercial samples of anthraquinones produced photodynamic inactivation of microorganisms in the order emodin>physcion>rhein. In some P. cuspidatum extracts, the proportions of emodin and physcion are between 0.51-0.65% and 0.24-0.27% by weight, respectively.

[2] = tested on: S. mutans; experiment: Agar diffusion test (TSA, bored hole / paper disk), dark vs light; format: cell-based, Streptococcus mutans; conditions: for zone of inhibition at 5000 µg/mL: chlorhexidine control 5 mg/mL
[3] = tested on: S. aureus; experiment: as above; format: cell-based, Staphylococcus aureus; conditions: for zone of inhibition at 5000 µg/mL: Staphylococcus aureus, chlorhexidine control 5 mg/mL
[4] = light-activated, extract 40 μg, components at their proportions found in the extract
[5] = comparative test, samples at strength as labelled, dark
[6] = comparative test, samples at strength as labelled, light 36 J cm^-2
[7] = light-activated, extract 40 μg, components at their proportions found in the extract, listed as Emodin 0.001%

For `Cc1cc(O)c2c(c1)C(=O)c1cc(O)cc(O[C@@H]3O[C@H](CO)[C@@H](O)[C@H](O)[C@H]3O)c1C2=O` [anthraquinones B, Anthraglycoside B], the “Photodynamic effect of components isolated by fractionation” value (“Photodynamic effect … by fractionation” below) [1] was “inactive”.
With `COc1cc(O)c2c(c1)C(=O)c1cc(C)cc(O)c1C2=O` [Physcion] the “Inhibition zone, S. mutans, Light” value [2, 4] was “inactive”, the “Inhibition zone, S. aureus, Light” value ([3]; light-activated, extract 40 μg, components at their proportions found in the extract, listed as Physcion 0.001%) was 8.5 mm and the “Order of photodynamic inactivation of microorganisms” value [1] was “emodin>physcion>rhein”.
For `Cc1cc2nc3ccc(N(C)C)cc3[s+]c2cc1N.[Cl-]` [TB 1%, Toluidine Blue 0], the “Inhibition zone, S. mutans, Dark” value [2, 5] was 15 mm, the “Inhibition zone, S. mutans, Light” value [2, 6] was 15 mm and the “Inhibition zone, S. aureus, Dark” value [3, 5] was 15 mm. For the same compound, the “Inhibition zone, S. aureus, Light” value [3, 6] was 16 mm.
In the case of `Cc1cc(O)c2c(c1)C(=O)c1cc(O)cc(O)c1C2=O` [Emodin], the zone of inhibition at 40 µg/disc ([2]; Streptococcus mutans, light or radiation study, higher concentrations: 20 μL of 2 mg mL^-1 = 40 μg, light 36 J cm^-2 (FIG. 14), read-out: Inhibition zone (photoactivity)) is reported as 10 mm, the “Inhibition zone, S. mutans, Light” value [2, 4] is reported as 7 mm and the “Inhibition zone, S. mutans, Light” value [2, 7] is reported as 7.0 mm. For the same compound, the “Inhibition zone, S. aureus, Light” value [3, 7] was 8.5 mm, the “Order of photodynamic inactivation of microorganisms” value [1] was “emodin>physcion>rhein” and the “Photodynamic effect … by fractionation” value [1] was “greatest photodynamic effect”.
`COc1cc(O[C@@H]2O[C@H](CO)[C@@H](O)[C@H](O)[C@H]2O)c2c(c1)C(=O)c1cc(C)cc(O)c1C2=O` [anthraquinones A] was tested, and the “Photodynamic effect … by fractionation” value [1] was “inactive”.
`[H]/N=C(\N/C(=N/[H])NCCCCCCNC(=N)NC(=N)Nc1ccc(Cl)cc1)Nc1ccc(Cl)cc1` [chlorhexidine, Chlorhexidine Digluconate] gave a zone of inhibition at 5000 µg/mL ([2]; Streptococcus mutans, dark, read-out: Inhibition zone, S. mutans, dark (reference)) of 18 mm, a zone of inhibition at 5000 µg/mL ([2]; Streptococcus mutans, light 35 J cm^-2, read-out: Inhibition zone, S. mutans, light (reference)) of 18 mm and a zone of inhibition at 5000 µg/mL ([3]; dark, read-out: Inhibition zone, S. aureus, dark (reference)) of 18 mm. The zone of inhibition at 5000 µg/mL ([3]; light 35 J cm^-2, read-out: Inhibition zone, S. aureus, light (reference)) was 18 mm.
With `Oc1ccc(C=Cc2cc(O)cc(O)c2)cc1` [resveratrol, Resveratrol] the “Antimicrobial activity in the dark” value ([2]; agar diffusion, dark (FIG. 14)) was “inactive” and the “Antimicrobial activity with light activation” value ([2]; agar diffusion, light 36 J cm^-2 (FIG. 14)) was “inactive”.
